Assay results: patent EP2718307B1, “BETA-HAIRPIN PEPTIDOMIMETICS AS CXC4 ANTAGONISTS” (Polyphor AG, priority 2011, dated 2012)
Bridge positions count the residues as written; N and C are the ends. Square brackets hold non-standard residues; d marks the D form. Peptide text beside a SMILES is read from it. Lys(iPr) = CC(C)NCCCC[C@H](N)C(=O)O; Orn(iPr) = CC(C)NCCC[C@H](N)C(=O)O

Key:
[1] = Plasma protein binding (ultrafiltration); assay type: in vitro ADME, human
Method: 495 µL aliquots of human plasma (Basler Blutspendedienst) as well as 495 µL aliquots of PBS were placed in individual deepwells of a polypropylene plate (Greiner) and spiked each with 5 µL of 1 mM solutions of peptides in 90% DMSO. After shaking the plate for 2 min at 600 rpm 150 µL aliquots of the plasma/peptide mixtures were transferred in triplicates to the polypropylene filter plate (10 kDa, Millipore) whereas 150 µL aliquots of the PBS/peptide mixtures were transferred either to the individual wells of the filter plate (filtered controls) or directly into the individual wells of the receiving plate (Greiner) (non-filtered controls). The plate sandwich consisting of filter and receiving plate was incubated for 1 h at 37°C and subsequently centrifuged at 3220 g for 2h at 15 °C. The filtrates in the receiving plate were analysed by LC/MS as follows: Column: Waters, XBridge C18, mobile phases: (A) water + 0.1% formic acid and (B) acetonitrile/water, 95/5 (v/v) + 0.1% formic acid, gradient: 5%-100% (B) in 1.8 min, electrospray ionization, MRM detection (triple quadrupole). The peak areas were determined and triplicate values are averaged. The binding is expressed in percent of the filtered and non-filtered controls by 100-(100x T1h/Tctr). Finally the average of these values is calculated.

[2] = Pharmacokinetic study (PK) after intravenous administration; assay type: in vivo, male CD-1 mice; settings: 1 mg/kg; for AUC0-∞ / CL / Cmax / Half-life / Vdis: mouse, in vivo
Method: For the compounds of Ex. 1, Ex.2, Ex. 3, Ex. 4, Ex. 5 and Ex. 6 pharmacokinetic studies after intravenous (i.v.) administration were performed.
30 grams (± 20%) male CD-1 mice obtained from Charles River Laboratories Deutschland GmbH were used. The vehicle, phosphate buffered saline, was added to give a final concentration of 0.5 mg/mL of the compound. The volume was 2 mL/kg and the compound was injected to give a final intravenous dose of 1 mg/kg. Approximately 300-400 µL of blood was removed under light isoflurane anesthesia by cardiac puncture at predetermined time intervals (5, 15, 30 min and 1, 2, 3, 4, hours) and added to heparinized tubes. Plasma was removed from pelleted cells upon centrifugation and frozen at -80 °C prior to HPLC-MS analysis.
Aliquots of 50 µL each of mouse plasma of untreated aminals ("blank" mouse plasma) were spiked with known amounts of the compounds Ex. 1, Ex.2, Ex. 3, Ex. 4, Ex. 5 and Ex. 6 in order to obtain 10 plasma calibration samples for each compound in the range 1 - 4000 ng/mL. Aliquots of 50 µL each of mouse plasma from treated animals were used as plasma study samples.
All plasma samples were spiked with an appropriate internal standard and extracted with acetonitrile containing 2% formic acid. Supernatants were evaporated to dryness under nitrogen and the remaining solids reconstituted in water/acetonitrile 95/5 (v/v) + 0.2% formic acid.
Extracts were then analyzed by reverse-phase chromatography (Acquity BEH C18, 100 x 2.1 mm, 1.7 µm column, Waters for Ex. 1 and Acquity HSS C18 SB, 100 x 2.1 mm, 1.8 µm column, Waters for Ex. 2, Ex. 3, Ex. 4, Ex. 5 and Ex. 6), using the following conditions: Ex. 1, mobile phases: (A) water/acetonitrile 95/5 (v/v) + 0.1% formic acid, (B) acetonitrile/water 95/5 (v/v) + 0.1% formic acid, gradient: 1% (B) 0-0.1 min, 15% (B) 0.1-2.5 min for Ex. 1 and 1% (B) 0-0.1 min, 40% (B) 0.1-2.5 min for Ex. 2, Ex. 3, Ex. 4, Ex. 5 and Ex. 6. The detection and quantification was performed by mass spectrometry, with electrospray interface in positive mode and selective fragmentation of analytes (4000 Q Trap mass spectrometer, AB Sciex).
PK parameters were calculated by WinNonLin™ software version 5.3 (Pharsight- A Certara™ Company, Moutain View, CA 94041 USA) using a one-compartmental model analysis. PK parameters were determined by least-square fitting of the model to the experimental data.

[3] = test system: human red blood cells (hRBC); experiment: Hemolysis; assay type: cell-based
Method: The peptides were tested for their hemolytic activity against human red blood cells (hRBC). Fresh hRBC were washed four times with phosphate buffered saline (PBS) and centrifuged for 10 min at 3000 x g. Compounds (100 µM) were incubated with 20% hRBC (v/v) for 1 h at 37°C and shaking at 300 rpm. The final erythrocyte concentration was approximately 0.9 x 10^9 cells/mL. A value of 0% and 100% cell lysis, respectively, was determined by incubation of hRBC in the presence of PBS containing 0.001% acetic acid and 2.5% Triton X-100 in H2O respectively. The samples were centrifuged, the supernatants were 8-fold diluted in PBS buffer and the optical densities (OD) were measured at 540 nm. The 100% lyses value (OD540H2O) gave an OD540 of approximately 0.5-1.0. Percent hemolysis was calculated as follows: (OD540peptide/OD540H2O) x 100%. [formula]

[4] = Drug loading calculations via maintenance dose rate (rate of infusion); settings: CLiv-mouse values scaled by 0.127 (GFR human/GFR mouse)
Method: The drug load for an implant comprising a peptide of the invention was calculated following the basic principles in pharmacokinetics (see also J. Gabrielsson, D. Weiner, "Pharmacokinetics and Pharmaco-dynamics Data Analysis: Concepts and Applications", 4th edition, Swedish Pharmaceutical Press, Stockholm, Sweden, 2006) whereby the maintainance dose rate (rate of infusion, Rin) can be defined as the rate at which a drug is to be administered to reach a steady state of a certain dose in the plasma. The maintainance dose rate can be expressed using the correlation Rin [g/(h*kg)] = CLiv[L/(h*kg)] x Css,eff [g/L], wherein CLiv is the clearance (i.v. - admin.) and Css,eff the effective concentration of the drug in the plasma at steady state considering an efficacy margin A: Css,eff [g/L] = A x (IC50/fu) x MW [(mol/L)*(g/mol)]. Therefore, the total amount of a drug loaded into an implant providing for a constant effective concentration of that drug in the plasma for a certain period of time in a subject of a certain body weight can be calculated by applying the following correlation: Drugload [g/subject] = Rin [g/(h*kg)] x duration[h] x BW [kg/subject]. [formula]
Further pre-conditions are an efficacy margin of A = 3, a study duration of 672 h (28 days) and a body weight of a human suject of 70 kg. The glomerular filtration rate (GFR) which mainly influences the clearance of the peptides is highly dependent on the species. In general, the GFR of humans is averaged to be 107 mL/(h*kg) compared to the GFR of mouse being 840 mL/(h*kg). Therefore, the CLiv-mouse values indicated in Table 5b were allometrically scaled by 107 mL/(h*kg)/840 mL/(h*kg) = 0.127 before employed in the above described correlations.

Compound	Plasma protein binding [1] [%]	Calc. Conc. ([2]; mouse plasma, i.v. route, Time 4 h) [ng/mL]	AUC0-∞ ([2]; iv) [ng·h/mL]	CL ([2]; iv) [mL/min/kg]	Cmax ([2]; iv) [ng/mL]	Half-life ([2]; iv) [min]	Vdis ([2]; iv) [L/kg]	Hemolysis at 100 µM ([3]; red cells of human, 1 h, 100) [%]	CLiv, human (allometric scaled) [4] [mL/min/kg]	level at 4 h ([2]; male, CD-1, in vivo, iv, mouse plasma, i.v. route, Time 4 h, read-out: Calc. Conc.) [ng/mL]	Hemolysis at 100 µM ([3]; 100 µM, 20% hRBC, 1 h at 37°C) [%]
CC(C)NCCCC[C@@H]1NC(=O)[C@H](CCC(N)=O)NC(=O)[C@H](Cc2ccc(O)cc2)NC(=O)[C@@H]2CSSC[C@H](NC(=O)[C@H](Cc3ccc(O)cc3)NC(=O)[C@H](Cc3c[nH]cn3)NC(=O)[C@H](Cc3ccc(O)cc3)NC(=O)[C@@H]3CCCN3C(=O)[C@H]3CCCN3C1=O)C(=O)N[C@@H](CO)C(=O)N[C@@H](C)C(=O)N1CCC[C@@H]1C(=O)N[C@@H](CCCNC(C)C)C(=O)N[C@@H](CCCNC(=N)N)C(=O)N[C@@H](Cc1ccc(O)cc1)C(=O)N2 [Ex. 1, cyclo(-Tyr^1-His^2-Tyr^3-Cys^4-Ser^5-Ala^6-^DPro^7-Orn(iPr)^8-Arg^9-Tyr^10-Cys^11-Tyr^12-Gln^13-Lys(iPr)^14-^DPro^15-Pro^16-), disulfide bond between Cys^4 and Cys^11] (cyclo(YHYCSA[dP][Orn(iPr)]RYCYQ[Lys(iPr)][dP]P); disulfide 4-11)	30	7	1151	14.5	1829	24	0.547	1.0	1.83	–	–
COc1ccc(C[C@@H]2NC(=O)[C@H](Cc3c[nH]cn3)NC(=O)[C@H](Cc3ccc(O)cc3)NC(=O)[C@@H]3CCCN3C(=O)[C@H]3CCCN3C(=O)[C@H](CCCCNC(C)C)NC(=O)[C@H](CCC(N)=O)NC(=O)[C@H](Cc3ccc(O)cc3)NC(=O)[C@@H]3CSSC[C@H](NC2=O)C(=O)N[C@@H](CO)C(=O)N[C@@H](C)C(=O)N2CCC[C@@H]2C(=O)N[C@@H](CCCNC(C)C)C(=O)N[C@@H](CCCNC(=N)N)C(=O)N[C@@H](Cc2ccc(O)cc2)C(=O)N3)cc1 [Ex. 2, cyclo(-Tyr^1-His^2-Tyr(Me)^3-Cys^4-Ser^5-Ala^6-^DPro^7-Orn(iPr)^8-Arg^9-Tyr^10-Cys^11-Tyr^12-Gln^13-Lys(iPr)^14-^DPro^15-Pro^16-), disulfide bond between Cys^4 and Cys^11] (cyclo(YHY(Me)CSA[dP][Orn(iPr)]RYCYQ[Lys(iPr)][dP]P); disulfide 4-11)	48	–	1518	11	1575	42	0.635	1.0	1.4	–	–
COc1ccc(C[C@H]2NC(=O)[C@H](C)NC(=O)[C@H](CO)NC(=O)[C@@H]3CSSC[C@H](NC(=O)[C@H](Cc4ccc(O)cc4)NC(=O)[C@H](CCCNC(=N)N)NC(=O)[C@H](CCCNC(C)C)NC2=O)C(=O)N[C@@H](Cc2ccc(O)cc2)C(=O)N[C@@H](CCC(N)=O)C(=O)N[C@@H](CCCCNC(C)C)C(=O)N2CCC[C@@H]2C(=O)N2CCC[C@H]2C(=O)N[C@@H](Cc2ccc(O)cc2)C(=O)N[C@@H](Cc2c[nH]cn2)C(=O)N[C@@H](C)C(=O)N3)cc1 [Ex. 4, cyclo(-Tyr^1-His^2-Ala^3-Cys^4-Ser^5-Ala^6-^DTyr(Me)^7-Orn(iPr)^8-Arg^9-Tyr^10-Cys^11-Tyr^12-Gln^13-Lys(iPr)^14-^DPro^15-Pro^16-), disulfide bond between Cys^4 and Cys^11] (cyclo(YHACSA[dY](Me)[Orn(iPr)]RYCYQ[Lys(iPr)][dP]P); disulfide 4-11)	56	–	1345	12.4	1615	36	0.607	0	1.57	–	–
COc1ccc(C[C@@H]2NC(=O)[C@H](Cc3c[nH]cn3)NC(=O)[C@H](Cc3ccc(O)cc3)NC(=O)[C@@H]3CCCN3C(=O)[C@H]3CCCN3C(=O)[C@H](CCCCNC(C)C)NC(=O)[C@H](CCC(N)=O)NC(=O)[C@H](Cc3ccc(O)cc3)NC(=O)[C@@H]3CSSC[C@H](NC2=O)C(=O)N[C@@H](CO)C(=O)N[C@@H](C)C(=O)N[C@H](Cc2ccc(OC)cc2)C(=O)N[C@@H](CCCNC(C)C)C(=O)N[C@@H](CCCNC(=N)N)C(=O)N[C@@H](Cc2ccc(O)cc2)C(=O)N3)cc1 [Ex. 6, cyclo(-Tyr^1-His^2-Tyr(Me)^3-Cys^4-Ser^5-Ala^6-^DTyr(Me)^7-Orn(iPr)^8-Arg^9-Tyr^10-Cys^11-Tyr^12-Gln^13-Lys(iPr)^14-^DPro^15-Pro^16-), disulfide bond between Cys^4 and Cys^11] (cyclo(YHY(Me)CSA[dY](Me)[Orn(iPr)]RYCYQ[Lys(iPr)][dP]P); disulfide 4-11)	–	–	–	–	–	–	–	–	5.18	7	2
